Results on 2 compounds are retold here after patent US20100256207A1, “AMORPHOUS OLMESARTAN MEDOXOMIL” (priority 2007, published 2010).

Structures are written as SMILES. “Also recorded” adds a separate entry of the source. Some results are limits rather than exact numbers.

For data set [1] the following is noted: cited from earlier work.
Data set [2] is classed as physicochemical. How it is done: The powder obtained by the process according to the invention as described above and in the following examples was also subjected to Differential Scanning Calorimetry (DSC). It will be apparent to one skilled in the art that the exothermic event at 100-140° C. is a heating-induced recrystallisation of the amorphous form to the crystalline prior art form. This is confirmed by XRPD data and confirms that the chemical entity of the initial amorphous material does represent olmesartan medoxomil. Further, it also confirms that the amorphous olmesartan medoxomil according to the above described embodiments of the invention is sufficiently kinetically stable or metastable, as no conversion to other polymorphic forms occurs below 100° C.
The DSC thermal analysis data was obtained using a Mettler-Toledo DSC821e apparatus under the following parameters:
(§1) Temperature profile: 25-300° C.@5° C./min
(§2) Nitrogen purge gas, 50 ml/min
(§3) Aluminium pan, […], pierced prior to scan

Data set [3] in a line: Thermo-Gravimetric Analysis (TGA): water content / hygroscopicity. The class given is physicochemical. On the procedure: The powder obtained by the process according to the invention as described above and in the following examples was also subjected to Thermo-Gravimetric Analysis (TGA).
The water content was determined by weight loss in the TGA data at 25-105° C.
The TGA analysis data was obtained using a Mettler-Toledo TGA851e apparatus under the following parameters:
as §1, §2, §3

On to `CCCc1nc(C(C)(C)O)c(C(=O)OCc2oc(=O)oc2C)n1Cc1ccc(-c2ccccc2-c2nnn[nH]2)cc1` [Olmesartan medoxomil, 2,3-dihydroxy-2-butenyl 4-(1-hydroxy-1-methylethyl)-2-propyl-1-[p-(o-tetrazol-5-yl-phenyl)benzyl]imidazole-5-carboxylate cyclic 2,3-carbonate], for which the aqueous solubility entry in data set [1] was “very low”.
In the case of `CCCc1nc(C(C)(C)O)c(C(=O)OCc2oc(=O)oc2C)n1Cc1ccc(-c2ccccc2-c2nnn[nH]2)cc1` [amorphous olmesartan medoxomil, 2,3-dihydroxy-2-butenyl 4-(1-hydroxy-1-methylethyl)-2-propyl-1-[p-(o-tetrazol-5-yl-phenyl)benzyl]imidazole-5-carboxylate cyclic 2,3-carbonate], in data set [2], the “kinetic stability: temperature below which no conversion to other polymorphic forms occurs” value is at least 100 °C. Moreover, the “exothermic event: heating-induced recrystallisation of the amorphous form to the crystalline prior art form” value in data set [2] (DSC, 25-300° C. at 5° C./min, nitrogen purge, confirmed by XRPD) is 100-140 °C. Moreover, the hygroscopicity entry in data set [3] is reported as “surprisingly low hygroscopicity; also recorded: substantially non-hygroscopic”. The water content entry in data set [3] (weight loss in the TGA data at 25-105° C.) is listed as “less than 2 % by weight”.
